Like-named read-outs stand apart in the source and are kept apart here.
Legend:
[1] = Solid or liquid state of the mixtures at 24° C. / 100° C.; type: physicochemical; details: for Room temperature (24° C.) DES liquid on mixing with Choline chloride: 1:2 mol:mol proportion
[2] = test system: RNA in rat tissue; test: RNA stabilisation in animal tissue by DES mixtures, 37° C. 18 hours, RNA yield and gel RNA quality (Example 3, Tables 1 and 2)
Experimental: To 400 μl of the following DES mixtures in a 2 ml polypropylene tube was added 5-15 mg of rat tissue (frozen tissue stock), following a 20 minute fixation step the sample was incubated at 37° C. for 18 hours prior to RNA extraction/purification using a RNeasy Micro kit (Cat. No. 74004, Qiagen, Germany). Whether the DES mixture was a solid or liquid at room temperature, the RNA yield following extraction and the RNA quality on a scale of 1-10 (with 0 indicating no stabilisation and 10 indicating no degradation, compared with the RNA quality of immediately extracted RNA from a fresh rat liver tissue sample=10).

[3] = test system: RNA of guanidine lysate; test: RNA yields from Guanidine/Choline chloride:Trifluoroacetamide mixtures in the absence of ethanol for binding (Example 30, Table 11); design: species or system mouse; details: no ethanol
[4] = Table 1, solid or liquid at room temperature
[5] = 0 highly degraded to 10 highest quality, 18S/28S rRNA on agarose gel, 37° C. 18 hours

Row | Structure (SMILES) | Room temperature (24° C.) DES liquid on mixing with Choline chloride [1] | other results
1 | CN1CCN(C)C1=O [1,3-Dimethyl-2-imidazolidone] | could not be prepared | –
2 | c1ccc(Cn2ccnc2)cc1 [1-Benzylimidazole] | could not be prepared | –
3 | CCN1CCCC1=O [1-Ethyl-2-pyrrol] | could not be prepared | –
4 | O=CN1CCOCC1 [4-Formyl morpholine] | could not be prepared | –
5 | CC(=O)CCC(C)=O [Acetonyl acetone] | could not be prepared | –
6 | N.N.N.O=P(O)(O)O [Ammonium phosphate] | – | Formation of room temperature DES liquids by ammonium salts [1]: not capable of forming room temperature DES liquids
7 | C[N+](C)(C)CC(=O)O [Betaine:Water (Sat'd), Betaine, reference compound] | – | Liquid at 24° C. [1, 4]: Yes; RNA Quality 0-10 [2, 5]: 0
8 | C[N+](C)(C)CCO.[Cl-] [Choline chloride:Water (6M), Choline chloride, reference compound] | – | Liquid at 24° C. [1]: Saturated; RNA Quality 0-10 [2]: 3
9 | O=C1OCCO1 [Ethylene carbonate] | could not be prepared | –
10 | CCn1ccnc1 [N-Ethylimidazole] | could not be prepared | –
11 | NC(=O)C(N)=O [Oxamide] | could not be prepared | –
12 | CC(C)(C)C(N)=O [Pivalamide] | could not be prepared | –
13 | O=C(O)[C@@H]1CCCN1 [Proline] | could not be prepared | –
14 | NC(=O)C(F)(F)F [Trifluoroacetamide] | – | RNA yield compared with Choline chloride:Trifluoroacetamide dissolved in Buffer RLT (1:1 wt:wt) [3]: 15%
15 | NC(N)=O [Water:Urea (5M), Urea, reference compound] | – | Liquid at 24° C. [1, 4]: Saturated; RNA Quality 0-10 [2, 5]: 0

Reference: patent publication US10393633B2, “Sample fixation and stabilisation” (RNASSIST LTD., priority 2013, dated 2019)
